Measured values reported in article PMC8998618, “A Pharmacokinetic and Metabolism Study of the TRPC6 Inhibitor SH045 in Mice by LC-MS/MS” (International Journal of Molecular Sciences, 2022).

What was measured:
[1] = tissue homogenate binding by ultrafiltration; assay type: in vitro ADME, mice
Procedure: After centrifugation of mixtures from tissue or microsomal incubations for 15 min at 4 °C, the supernatants were filtered through a 0.2 -µm-pore-size syringe filter and stored in the autosampler at 6 °C until analysis by LC-MS/MS as […]
SM5 Tissue binding of SH045
The tissue binding of SH045 was analyzed exemplarily in lung, liver and kidney homogenate using ultrafiltration [5]. Appropriate concentrations of homogenate and SH045 were optimized out of data from a series of various dilution ratios of tissue homogenates (1/2, 1/5, 1/10 and 1/20, w/v) and SH045 concentrations in spiked homogenate (liver and kidney: 0.05, 0.1, 0.5, 1, 2, 5 µg/mL; lung: 1, 2, 5, 10, 20, 50 µg/mL, not shown). Tissue binding assays were performed as follows: 448 µL tissue homogenates (1/10, w/v) were mixed with 2 µL SH045 (final: 50 µg/ml for lung, 2 µg/ml for liver and 1 µg/ml kidney). After incubation for 15 min at 37 °C at 450 rpm, 400 µL of the mixture was transferred to centrifugal filter units (30kDa) and centrifuged for 20 min at 2000g and 37 °C. 20 µL of the mixture and the filtrate were analyzed for SH045. The concentration in the filtrate refers to the unbound SH045 concentration according to tissue binding (%) = (ctot – cfiltrate) / ctotal × 100%. […]
Mean maximum rate vmax and Michaelis- […]
CLint,micr the intrinsic clearance CLint, equal to the maximum enzyme activity of liver and for in vitro-in vivo exploration of hepatic clearance CLhep in mouse and human using the “well-stirred” model [6].
SM7 Identification of metabolism pathways and metabolites of SH045 in MLM and HLM To determine possible metabolism pathways of SH045 in MLM and HLM, an in vitro inhibition approach was performed with CYP-isoform specific inhibitors (final concentration): ciprofloxacin (CYP1A2; 150 µM), pilocarpine (CYP2A6; 50 µM), ticlopidine (CYP2B6; 5 µM), quercetin (CYP2C8; 2 µM), sulfaphenazole (CYP2C9; 10 µM), fluvoxamine (CYP2C19; 10 µM), quinidine (CYP2D6; 10 µM), 4-methyl pyrazole (CYP2E1; 100 µM) and ketoconazole (CYP3A4; 1 µM) [7, 8]. […]

[2] = NADPH-dependent microsomal conversion, Michaelis-Menten kinetics (HLM); assay type: in vitro ADME, human; details: HLM 0.5 mg/mL protein, SH045 0.5 to 100 µM, Lineweaver-Burk
Procedure: For determination of vmax and Michaelis-Menten constant Km of the NADPH-dependent microsomal depletion of SH045, incubations in MLM and HLM were performed. Testosterone instead of SH045 was used as positive control (Supplementary Materials SM6).
Negative controls were obtained by omission of respective components. The overall velocity (v) of degradation was calculated from altered SH045 concentration (∆c) obtained from reduction peak area ratio of SH045 as: v = ∆c/incubation time × concentration of enzyme (nmol/min × mg). Mean maximum rate vmax and Km were calculated using Lineweaver-Burk transformation. […]
The tissue binding of SH045 was analyzed exemplarily in lung, liver and kidney homogenate using ultrafiltration [5]. […] 20 µL of the mixture and the filtrate were analyzed for SH045. […]
Testosterone (10 µM in ACN/DPBS 2/3, v/v) instead of SH045 was used as positive control and analyzed by an appropriate HPLC method with UV detection.
Negative controls contained either no NADPH, no MLM or HLM or none of them. The overall velocity (v) of degradation was calculated from altered SH045 concentration (∆c) obtained from reduction peak area ratio of SH045 as: v = ∆c / incubation time × concentration of enzyme × volume (nmol/ min × mg). Mean maximum rate vmax and Michaelis-Menten constant Km were calculated using Lineweaver-Burk transformation. […]

[3] = system: ischemic lungs explanted from mice; parameters: method as in PMID 29522264; details: ex vivo; cited from earlier work

- Tissue binding ([1]; kidney): 98%
- Tissue binding ([1]; liver): 97%
- Tissue binding ([1]; lung): 97%
- vmax [2]: 0.8 ± 0.1 nmol/min/mg
- Km at 10 min ([2]; human, human liver microsomes): 4.1 ± 0.8 µM
SMILES: C=C[C@@](C)(O)CC[C@H]1C(=C)C[C@H](OC(=O)NC)[C@H]2C(C)(C)CCC[C@]12C [SH045, (1S,4S,4aR,8aS)-4-((S)-3-Hydroxy-3-methylpent-4-en-1-yl)-4a,8,8-trimethyl-3-methylenedecahydronaphthalen-1-yl methylcarbamate]
- edema formation after reperfusion [3]: reduced edema formation
